Values of other authors as cited in patent EP0388817A2, “Use of mixed micelles and mixed micelle solutions of immunomodulators” (F. Hoffmann-La Roche AG, priority 1989, dated 1990).

Conditions: octanol/water

Verteilungskoeffizient in Octanol/Wasser, > 10^6:
Vitamin A
Vitamin K
Vitamin E
